The source made the active and inactive calls. No cut-off for these calls is given here.
Target: Ryanodine receptor 1 (Mus musculus) (UniProt E9PZQ0)
Test: Selective inhibition of Ryanodine receptor 1 mediated physiological [Ca2+] release (PCR) from sarcoplasmic reticulum against calcium-induced Ca2+ release (CICR)
Assay type: functional

Ryanodine receptor 1 (Mus musculus), sequence (E9PZQ0 whole entry): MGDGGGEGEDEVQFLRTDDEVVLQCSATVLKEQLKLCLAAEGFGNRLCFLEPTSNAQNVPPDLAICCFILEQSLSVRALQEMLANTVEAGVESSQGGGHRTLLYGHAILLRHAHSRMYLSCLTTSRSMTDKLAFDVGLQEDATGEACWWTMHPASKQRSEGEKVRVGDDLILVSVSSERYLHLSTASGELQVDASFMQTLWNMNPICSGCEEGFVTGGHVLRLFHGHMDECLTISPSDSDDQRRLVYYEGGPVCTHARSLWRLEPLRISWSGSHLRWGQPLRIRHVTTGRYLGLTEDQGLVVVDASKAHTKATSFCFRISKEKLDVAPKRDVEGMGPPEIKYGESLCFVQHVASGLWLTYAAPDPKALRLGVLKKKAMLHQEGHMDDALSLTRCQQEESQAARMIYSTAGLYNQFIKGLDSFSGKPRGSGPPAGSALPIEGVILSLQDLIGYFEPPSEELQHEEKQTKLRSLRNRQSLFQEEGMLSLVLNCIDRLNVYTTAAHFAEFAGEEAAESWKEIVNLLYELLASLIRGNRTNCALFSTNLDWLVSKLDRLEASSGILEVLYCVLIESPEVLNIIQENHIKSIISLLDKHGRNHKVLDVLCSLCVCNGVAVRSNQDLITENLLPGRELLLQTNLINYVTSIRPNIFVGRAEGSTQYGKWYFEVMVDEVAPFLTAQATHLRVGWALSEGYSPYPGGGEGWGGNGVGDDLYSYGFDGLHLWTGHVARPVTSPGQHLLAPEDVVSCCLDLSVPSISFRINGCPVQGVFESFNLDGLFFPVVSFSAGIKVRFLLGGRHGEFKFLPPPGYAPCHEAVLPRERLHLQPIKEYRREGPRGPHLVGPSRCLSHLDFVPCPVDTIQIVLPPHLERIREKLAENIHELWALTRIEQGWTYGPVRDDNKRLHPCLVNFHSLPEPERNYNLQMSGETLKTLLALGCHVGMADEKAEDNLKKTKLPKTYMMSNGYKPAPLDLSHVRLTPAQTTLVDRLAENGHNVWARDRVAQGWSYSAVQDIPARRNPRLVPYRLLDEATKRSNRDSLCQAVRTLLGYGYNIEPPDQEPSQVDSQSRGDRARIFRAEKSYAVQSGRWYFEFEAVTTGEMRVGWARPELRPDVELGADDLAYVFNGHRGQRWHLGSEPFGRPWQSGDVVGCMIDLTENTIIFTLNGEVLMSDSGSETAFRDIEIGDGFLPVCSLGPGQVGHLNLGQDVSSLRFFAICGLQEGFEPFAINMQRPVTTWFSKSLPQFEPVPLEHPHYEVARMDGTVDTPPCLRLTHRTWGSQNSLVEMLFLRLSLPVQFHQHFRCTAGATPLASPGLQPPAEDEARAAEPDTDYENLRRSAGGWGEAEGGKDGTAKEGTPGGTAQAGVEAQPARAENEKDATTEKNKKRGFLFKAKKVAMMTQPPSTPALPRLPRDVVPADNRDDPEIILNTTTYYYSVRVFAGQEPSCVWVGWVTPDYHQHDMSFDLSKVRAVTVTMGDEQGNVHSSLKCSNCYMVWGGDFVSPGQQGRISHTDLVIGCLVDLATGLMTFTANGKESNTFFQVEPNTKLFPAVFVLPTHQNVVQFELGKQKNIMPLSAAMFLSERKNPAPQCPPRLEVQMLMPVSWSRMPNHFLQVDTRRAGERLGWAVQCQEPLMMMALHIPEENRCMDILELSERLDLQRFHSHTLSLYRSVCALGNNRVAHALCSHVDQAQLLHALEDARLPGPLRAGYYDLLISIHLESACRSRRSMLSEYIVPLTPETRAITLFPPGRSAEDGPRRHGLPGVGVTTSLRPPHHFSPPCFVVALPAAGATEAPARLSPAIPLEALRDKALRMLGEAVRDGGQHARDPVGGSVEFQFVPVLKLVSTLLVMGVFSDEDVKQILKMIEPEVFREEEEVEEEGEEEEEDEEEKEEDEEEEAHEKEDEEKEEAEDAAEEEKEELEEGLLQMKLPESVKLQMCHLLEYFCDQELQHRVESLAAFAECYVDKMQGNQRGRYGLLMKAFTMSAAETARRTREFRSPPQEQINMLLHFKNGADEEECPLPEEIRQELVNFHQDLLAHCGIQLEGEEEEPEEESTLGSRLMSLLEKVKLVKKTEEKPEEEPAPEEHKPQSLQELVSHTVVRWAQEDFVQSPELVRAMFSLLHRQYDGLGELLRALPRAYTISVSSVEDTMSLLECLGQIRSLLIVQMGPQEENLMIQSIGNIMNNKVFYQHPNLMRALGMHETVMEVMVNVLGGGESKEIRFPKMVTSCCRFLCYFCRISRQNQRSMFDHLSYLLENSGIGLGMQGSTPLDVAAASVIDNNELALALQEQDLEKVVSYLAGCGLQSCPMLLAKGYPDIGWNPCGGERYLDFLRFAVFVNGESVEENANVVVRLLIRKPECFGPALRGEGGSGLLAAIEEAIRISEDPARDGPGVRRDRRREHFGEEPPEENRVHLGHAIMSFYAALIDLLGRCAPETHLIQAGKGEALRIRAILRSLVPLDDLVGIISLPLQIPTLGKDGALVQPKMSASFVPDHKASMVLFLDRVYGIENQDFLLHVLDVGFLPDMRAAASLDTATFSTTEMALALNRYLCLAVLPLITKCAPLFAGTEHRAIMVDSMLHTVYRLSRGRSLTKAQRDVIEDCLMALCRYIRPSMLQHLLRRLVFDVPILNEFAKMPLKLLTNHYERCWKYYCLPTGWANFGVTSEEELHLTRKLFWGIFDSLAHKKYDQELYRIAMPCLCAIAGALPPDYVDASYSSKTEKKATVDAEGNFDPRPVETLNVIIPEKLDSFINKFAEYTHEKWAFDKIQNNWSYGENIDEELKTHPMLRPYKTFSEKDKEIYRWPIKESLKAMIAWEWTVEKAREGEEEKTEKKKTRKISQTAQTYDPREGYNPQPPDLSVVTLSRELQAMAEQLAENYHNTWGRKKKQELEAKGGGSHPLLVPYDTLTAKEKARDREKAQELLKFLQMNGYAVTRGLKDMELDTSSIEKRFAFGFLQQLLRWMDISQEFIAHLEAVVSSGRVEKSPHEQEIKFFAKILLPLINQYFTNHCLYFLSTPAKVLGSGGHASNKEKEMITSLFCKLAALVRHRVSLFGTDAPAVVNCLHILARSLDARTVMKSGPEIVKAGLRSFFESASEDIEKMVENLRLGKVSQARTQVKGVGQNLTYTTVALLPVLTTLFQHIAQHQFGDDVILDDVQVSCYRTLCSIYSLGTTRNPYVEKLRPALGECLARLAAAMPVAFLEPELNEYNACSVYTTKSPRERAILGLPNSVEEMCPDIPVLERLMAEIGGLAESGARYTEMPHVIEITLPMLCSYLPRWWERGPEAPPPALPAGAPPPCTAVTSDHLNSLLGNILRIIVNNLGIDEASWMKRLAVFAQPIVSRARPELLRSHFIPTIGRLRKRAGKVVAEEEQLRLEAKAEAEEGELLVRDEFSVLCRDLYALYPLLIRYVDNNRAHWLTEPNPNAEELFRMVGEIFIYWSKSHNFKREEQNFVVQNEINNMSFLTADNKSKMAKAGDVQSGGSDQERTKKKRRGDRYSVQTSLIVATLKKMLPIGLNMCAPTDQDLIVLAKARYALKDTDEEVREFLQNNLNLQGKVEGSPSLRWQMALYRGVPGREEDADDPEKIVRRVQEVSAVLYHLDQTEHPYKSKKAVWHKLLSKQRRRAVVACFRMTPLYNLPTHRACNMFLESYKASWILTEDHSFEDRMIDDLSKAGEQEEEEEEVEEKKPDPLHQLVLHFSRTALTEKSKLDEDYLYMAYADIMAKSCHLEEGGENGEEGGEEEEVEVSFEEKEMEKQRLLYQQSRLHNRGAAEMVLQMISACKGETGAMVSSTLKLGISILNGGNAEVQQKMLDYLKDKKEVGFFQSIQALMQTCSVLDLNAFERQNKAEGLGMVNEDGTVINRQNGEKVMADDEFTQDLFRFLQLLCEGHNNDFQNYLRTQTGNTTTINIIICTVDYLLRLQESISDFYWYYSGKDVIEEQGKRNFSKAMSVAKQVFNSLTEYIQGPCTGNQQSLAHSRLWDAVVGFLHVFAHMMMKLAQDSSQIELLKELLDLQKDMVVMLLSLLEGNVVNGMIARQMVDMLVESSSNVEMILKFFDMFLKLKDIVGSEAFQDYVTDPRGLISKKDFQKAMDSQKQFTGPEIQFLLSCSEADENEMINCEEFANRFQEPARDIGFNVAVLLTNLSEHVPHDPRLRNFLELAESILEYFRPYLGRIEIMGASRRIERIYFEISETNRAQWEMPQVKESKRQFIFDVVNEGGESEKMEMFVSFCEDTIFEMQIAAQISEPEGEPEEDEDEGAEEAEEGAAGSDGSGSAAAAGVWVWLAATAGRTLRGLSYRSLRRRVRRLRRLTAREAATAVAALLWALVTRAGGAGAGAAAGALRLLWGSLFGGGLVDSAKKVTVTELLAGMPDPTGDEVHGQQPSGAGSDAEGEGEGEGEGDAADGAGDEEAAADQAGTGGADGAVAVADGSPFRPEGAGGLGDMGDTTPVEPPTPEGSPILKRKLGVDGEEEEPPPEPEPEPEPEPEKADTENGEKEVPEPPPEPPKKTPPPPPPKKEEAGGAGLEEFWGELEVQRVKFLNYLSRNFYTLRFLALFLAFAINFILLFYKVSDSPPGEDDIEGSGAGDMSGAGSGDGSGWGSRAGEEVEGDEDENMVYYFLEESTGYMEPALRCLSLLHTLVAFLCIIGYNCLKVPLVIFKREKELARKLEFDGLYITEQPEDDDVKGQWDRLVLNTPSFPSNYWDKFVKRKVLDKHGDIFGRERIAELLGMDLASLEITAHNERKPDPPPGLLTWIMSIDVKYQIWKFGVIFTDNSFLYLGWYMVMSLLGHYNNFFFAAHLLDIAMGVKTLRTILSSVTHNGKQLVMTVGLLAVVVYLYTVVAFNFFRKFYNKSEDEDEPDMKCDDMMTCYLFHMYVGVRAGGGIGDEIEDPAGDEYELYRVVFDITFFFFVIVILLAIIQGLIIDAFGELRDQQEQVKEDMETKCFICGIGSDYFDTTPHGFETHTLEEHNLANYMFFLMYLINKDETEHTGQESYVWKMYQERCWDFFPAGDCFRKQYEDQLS

For [N-]=[N+]=Nc1cc(I)cc(CN2C(=O)CN(/N=C/c3ccc(-c4ccc([N+](=O)[O-])cc4)o3)C2=O)c1, the Activity was “Active”.

For O=C1CN(/N=C/c2ccc(-c3ccc([N+](=O)[O-])cc3)o2)C(=O)N1Cc1cc(I)cc(C2(C(F)(F)F)N=N2)c1, the Activity was “Active”.
